Test results taken from US20250066507A1, “METHODS OF TREATING CANCER WITH A COMBINATION OF AN ANTI-PD-1 ANTIBODY AND AN ANTI-TISSUE FACTOR ANTIBODY-DRUG CONJUGATE” (Genmab A/S, priority 2018, published 2025).
Square brackets hold non-standard residues; d marks the D form. Peptide text beside a SMILES is read from it. * marks the point of attachment. Dolaproine = CO[C@@H]([C@@H]1CCCN1)[C@@H](C)C(=O)O; Dil = CC[C@H](C)[C@H](NC)[C@@H](CC(=O)O)OC; X1 = C[C@@H](N*)[C@@H](O)c1ccccc1; NMeV = CN[C@H](C(=O)O)C(C)C

Legend:
HeLa cells [1] = assay: Western blot of ER stress signalling in MMAE-treated HeLa cells; format: cell-based; conditions: 100 nM MMAE, 16 hours
Description: HeLa cells, a cervical cancer cell line, were cultured in Minimum Essential Medium (MEM) with 10% FBS, 10 mM HEPES, 1 mM sodium pyruvate, 2 mM L-glutamine, penicillin (100 U/ml), and streptomycin (100 μg/ml). HeLa cells were treated with 100 nM MMAE for 16 hours and harvested in radioimmunoprecipitation assay buffer (RIPA) buffer for western blot analysis. […] Severe ER stress is a prerequisite to the exposure of pro-phagocytic signals on the surface of tumor cells, and can be indicated by activation of JNK signaling by phosphorylated IRE1.

HeLa cells [2] = assay: Live imaging of RFP-tubulin and ER-ID Green in MMAE-treated HeLa cells; format: cell-based; conditions: 100 nM MMAE, imaged over time
Description: Treatment of HeLa cells with MMAE led to disassembly of the microtubule network and subsequent ER mislocalization. HeLa cells were transduced with a baculovirus encoding RFP-labeled Tubulin (CellLight Tubulin-RFP, ThermoFisher Scientific) and an ER-binding dye (ER-ID Green, Enzo Life Sciences). Cells were treated with 100 nM MMAE and imaged over time in the present of MMAE. Within 2 hours, fragmentation and disassembly of the microtubule network became evident, concurrent with the breakdown of the perinuclear organized ER lattice (FIGS. 2A and B). The condensed and mislocalized ER skeleton indicated severe ER stress within 8 hours.

HeLa cells [3] = assay: ATP and HMGB1 secretion from MMAE-treated HeLa cells; format: cell-based; conditions: 100 nM MMAE, over 24 hours, versus untreated cells
From the text: Induction of ICD is also characterized by the secretion of ATP and HMGB1. Extracellular ATP serves as a strong chemotactic signal, promoting immune cell migration to the tumor site. Upon arrival, extracellular HMGB1 signals through various pro-inflammatory receptors (TLR2, TLR4, RAGE) to activate antigen-presenting cells, thereby promoting immune activity within the tumor.

[4] = system: Tissue Factor positive cell lines; assay: Release of ICD molecules ATP and HMGB1 from Tissue Factor positive cells; format: cell-based; conditions: for ATP secretion: FIG. 4A; for HMGB1 release: FIG. 4C
From the text: Auristatin ADC payloads disrupt the microtubule networks resulting in altered ER localization and function, which ultimately results in ER stress. Cells exposed to Tissue Factor directed antibody linked to the monomethyl auristatin E payload (MMAE), i.e., tisotumab vedotin (an antibody drug conjugate or ADC), undergo cell death and as they do release the ICD related molecules ATP (FIG. 4A) and HMGB1 (FIG. 4C). The release of these molecules is specific to tisotumab vedotin ADC and MMAE treatment and occurs across multiple Tissue Factor positive cell lines (FIG. 4B).

[5] = system: HPAFII (pancreatic carcinoma); assay: Western blot of ER stress pathways in HPAFII cells; format: cell-based; conditions: 18 hours (FIG. 5 legend: 16 hours)
Description: (§1) Induction of cell death and release of ICD danger signals occurs concomitant with initiation of an ER stress response. Two Tissue Factor positive cell lines, HPAFII (pancreatic carcinoma) and MDA-MB-231 (breast cell carcinoma) were exposed to tisotumab vedotin ADC, an Isotype-MMAE ADC (H00-MMAE, IgG1 MMAE), or free MMAE for 18 hours and induction of ER stress monitored by western blot analysis. Phosphorylation of inositol-requiring transmembrane kinase/endonuclease 1 (IRE1) was detected after treatment with tisotumab vedotin ADC or MMAE free drug (FIG. 5). […] The ability for auristatins to prime the immune system to recognize tumor antigens opens the door for a myriad of combinatorial therapeutic options.

[6] = system: MDA-MB-231 (breast cell carcinoma); assay: Western blot of ER stress pathways in MDA-MB-231 cells; format: cell-based; conditions: 18 hours (FIG. 5 legend: 16 hours)
Description: as §1

[7] = system: CD14+ monocyte/macrophages; assay: Monocyte/macrophage activation in PBMCs fed drug-killed MDA-MB-231 cells; format: cell-based; conditions: MDA-MB-231 cells killed with the agent, fed to human PBMCs; for monocyte/macrophage activation monitored by CD86 expression: flow cytometry
From the text: FIGS. 6A and 6B is a series of graphs in which Tissue Factor positive MDA-MB-231 cells killed with various agents were fed to human peripheral blood mononuclear cells (PBMCs) and immune activation assessed by increased expression of activations markers on innate CD14+ monocyte/macrophages and induction of chemokine and cytokine production.
Immunogenic cell death, as mediated by MMAE, is regulated cell death that activates adaptive immune responses against antigens from dead and dying tumor cells, and allows for the generation of robust innate immune cell activation and subsequent cytotoxic T cell responses targeted towards specific tumor cell antigens. […] Furthermore, these monocyte/macrophages conditioned by ICD-killed cells promote activation of T cells, as evidenced by production of signature inflammatory cytokines associated with cytotoxic T cell responses.

T cells = assay: T cell activation in CSFE labeled PBMCs fed drug-killed MDA-MB-231 cells, with or without nivolumab; format: cell-based, human; conditions: for T cell proliferation (CSFE dilution) / IFNγ production / IL12p70 production: MDA-MB-231 cells exposed to the agent; for T cell proliferation (CSFE dilution): fed to CSFE labeled human PBMCs for 48 hours; for IFNγ production / IL12p70 production: fed to human PBMCs for 48 hours
From the text: Induction of the innate immune response following exposure to cancer cells undergoing ICD sets up secondary T cell activation, which can be enhanced by concomitant anti-PD1 treatment.

wild-type tumor cells = assay: Syngeneic model: immunization with drug-killed human TF positive tumor cells, then tumor challenge; format: in vivo, Balb/c mice; conditions: for survival after challenge / tumor growth after challenge: Balb/c mice immunized with human TF positive tumor cells killed by the agent, challenged s.c. with 5×10^6 wild-type tumor cells
Description: Mouse tumor cells are transfected with plasmid constructs encoding human tissue factor (TF) and sgRNA-guided Cas9 nuclease (sgRNA/Cas9) to generate a murine cell line that expresses the human TF. Fluorescence activated cell sorting (FACS) yields a clonal population of murine tumor cells that stably express human TF, these cells are then treated with lpg to 5 μg per ml of tisotumab vedotin or 100 nM of MMAE for 4 days. In order to prepare dying cells for immunization, treated murine tumor cells are overlaid atop Histopaque, and centrifuged at 2000 g for 30 minutes. Dead and dying cells are pelleted underneath the Histopaque layer, and viability assessed by trypan blue exclusion. A sample with approximately <20% live cells as measured by trypan blue exclusion is obtained. Flash-frozen tumor cells are prepared by submerging the cells in liquid nitrogen for 10 seconds, followed by immersion in 37° C. water until completely thawed. The liquid nitrogen freeze-thaw process is repeated 5 times. Dead and dying human TF positive tumor cells are resuspended in phosphate buffered saline (PBS) and 2×10^6 cells are injected into the peritoneum of immune-competent Balb/c mice. Seven days later, mice receive a second immunization with dead and dying cells prepared in the same manner.
Fourteen days after initial immunization with the dead and dying human TF positive tumor cells, mice are subcutaneously implanted with 5×10^6 wild-type tumor cells and monitored for tumor growth. […] As these effects occur in the absence of any administered therapeutic agent, the administration of cells killed by tisotumab vedotin or MMAE is sufficient to generate long-lasting protective immune memory against subsequent tumor cell challenge. Protective immune memory is amplified by treating these mice with tisotumab vedotin in combination with an antibody that binds to murine PD-1. This combination treatment increases the number of mice that are cured by subsequent tumor challenge.

advanced cervical cancer = conditions: 240 mg Q2W, 19 patients with previously treated; cited from earlier work
[8] = concomitant nivolumab treatment, 48 hours

In the case of `CC[C@H](C)[C@@H]([C@@H](CC(=O)N1CCC[C@H]1[C@H](OC)[C@@H](C)C(=O)N[C@H](C)[C@@H](O)c1ccccc1)OC)N(C)C(=O)[C@@H](NC(=O)[C@@H](NC)C(C)C)C(C)C` [MMAE, monomethyl auristatin E] (H-[NMeV]V[Dil][Dolaproine]-X1), the “phosphorylation of IRE1” value (HeLa cells [1]) was “led to phosphorylation”, the “phosphorylation of JNK” value (HeLa cells [1]) was “phosphorylation of IRE1 and JNK” and the “time until condensed and mislocalized ER skeleton indicated severe ER stress” value (HeLa cells [2]) was no more than 8 h. For the same compound, the “time until fragmentation and disassembly of the microtubule network and breakdown of the perinuclear ER lattice became evident” value (HeLa cells [2]) was no more than 2 h, the “secretion of ATP” value (HeLa cells [3]) was “increased secretion” and the “secretion of HMGB1” value (HeLa cells [3]) was “increased secretion”. For the same compound, the ATP secretion [4] was “robust”, the HMGB1 release [4] was “robust” and the “ATF4 cleavage (PERK pathway)” value [5] was “upregulation of ATF4 cleavage”. The “activation of JNK (phosphorylation)” value [5] was “increased phosphorylation”, the “phosphorylation of IRE1” value [5] was “detected” and the “ATF4 cleavage (PERK pathway)” value [6] was “upregulation of ATF4 cleavage”. The “activation of JNK (phosphorylation)” value [6] was “increased phosphorylation”, the “phosphorylation of IRE1” value [6] was “detected” and the “release of innate chemokines including MIP10” value [7] was “induced release”. For the same compound, the “monocyte/macrophage activation monitored by CD86 expression” value [7] was “drove monocyte/macrophage activations”, the “T cell proliferation (CSFE dilution)” value (T cells) was “drove T cell proliferation” and the IFNγ production (T cells) was “increased”. The IL12p70 production (T cells) was “increased”, the survival after challenge (wild-type tumor cells) was “increased survival” and the “tumor growth after challenge” value (wild-type tumor cells) was “delayed tumor growth”.
In the case of “nivolumab: anti-PD-1 antibody, a checkpoint inhibitor”, the “effect of nivolumab on T cell proliferation driven by tisotumab vedotin or MMAE killed cells” value (T cells; 2 mg/ml of nivolumab, 48 hours) was “enhanced”, the “effect of concomitant nivolumab on IFNγ production after tisotumab vedotin and MMAE killed cells” value (T cells; [8]) was “increased” and the “effect of concomitant nivolumab on IL12p70 production after tisotumab vedotin and MMAE killed cells” value (T cells; [8]) was “increased”. For the same compound, the objective response rate (advanced cervical cancer) was 26%.
For tisotumab, the “T cell proliferation (CSFE dilution)” value (T cells) was “did not elicit these responses”, the IFNγ production (T cells) was “did not elicit these responses” and the IL12p70 production (T cells) was “did not elicit these responses”.
For tisotumab vedotin, the ATP secretion [4] was “robust”, the “activity (release of ICD molecules) on multiple Tissue Factor positive cell lines” value ([4]; FIG. 4B) was “active” and the HMGB1 release [4] was “robust”. For the same compound, the “ATF4 cleavage (PERK pathway)” value [5] was “upregulation of ATF4 cleavage”, the “activation of JNK (phosphorylation)” value [5] was “increased phosphorylation” and the “phosphorylation of IRE1” value [5] was “detected”. For the same compound, the “ATF4 cleavage (PERK pathway)” value [6] was “upregulation of ATF4 cleavage”, the “activation of JNK (phosphorylation)” value [6] was “increased phosphorylation” and the “phosphorylation of IRE1” value [6] was “detected”. The “release of innate chemokines including MIP10” value [7] was “induced release”, the “monocyte/macrophage activation monitored by CD86 expression” value [7] was “drove monocyte/macrophage activations” and the “T cell proliferation (CSFE dilution)” value (T cells) was “drove T cell proliferation”. For the same compound, the IFNγ production (T cells) was “increased”, the IL12p70 production (T cells) was “increased” and the survival after challenge (wild-type tumor cells) was “increased survival”. For the same compound, the “tumor growth after challenge” value (wild-type tumor cells) was “delayed tumor growth” and the “number of mice cured by subsequent tumor challenge” value (wild-type tumor cells; immunized mice treated with tisotumab vedotin in combination with an antibody that binds to murine PD-1) was “increases”.
